The text below walks through data of patent US10994015B2, “EGFR proteolysis targeting chimeric molecules and associated methods of use” (Arvinas Operations, Inc., priority 2016, dated 2021).

Structures are written as SMILES.

The target of one assay is L858R EGFR (Homo sapiens (Human), UniProt P00533, L858R). In words: Immunoblot of EGFR degradation in H3255 cells. The class given is cell-based. To be noted: 24 hours. As for the experimental part:
(§1) Cells were treated with the indicated concentrations of PROTAC or corresponding inhibiting diastereomer for the specified time and then harvested in lysis buffer (25 mM Tris.HCl pH 7.5 with 1% NP-40 and 0.25% deoxycholate, supplemented with 10 mM sodium pyrophosphate, 20 mM ß-glycerophosphate, 10 mM sodium fluoride, 1 mM sodium orthovanadate, 0.1 mM phenylarsine oxide, 10 μg/ml leupeptin, 10 μg/ml pepstatin A, 30 μg/ml bestatin, 0.3 trypsin inhibitor units/ml aprotinin and 1 mM PMSF). Following centrifugation at 16,000×g for 10 min at 4° C. to pellet insoluble materials, the protein concentrations of the supernatants were quantitated by BCA assay (Thermo Fisher Scientific). Protein samples were resolved by 8% SDS-PAGE, electrophoretically transferred to nitrocellulose and probed with the antibodies listed above. Immunoblots were developed using enhanced chemiluminescence and visualized using a Bio-Rad Chemi-Doc MP Imaging System and quantitated with Image Lab v.5.2.1 software (Bio-Rad Laboratories).

Another assay addresses WT EGFR (Homo sapiens (Human), UniProt P00533). In words: Immunoblot of EGFR degradation in OVCAR8 cells. To be noted: 24 hours. The class given is cell-based. The method, then:
as §1

In another assay the target is exon-19 deletion EGFR (Homo sapiens (Human), UniProt P00533, DEL746-750). As to the kind of experiment: Immunoblot of EGFR degradation in HCC827 cells. To be noted: 24 hours. The class given is cell-based. As for the experimental part: as §1
The test system of another assay is GTL16 cells. As to the kind of experiment: Cell-proliferation assay in GTL16 cells. The class given is cell-based. To be noted: Homo sapiens, GTL 16. The method, then: Cell Proliferation Assays
Following PROTAC or diastereomer treatment of cells as indicated, culture medium was supplemented with 330 μg/ml MTS (Promega Corp., Madison, Wis.) and 25 μM phenazine methosulfate (Sigma, St. Louis, Mo.) and incubated at 37° C. Mitochondrial reduction of MTS to the formazan derivative was monitored by measuring the medium's absorbance at 490 nm using a Wallac Victor^2 platereader (Perkin-Elmer Life Sciences, Waltham, Mass.). Data analysis and statistics performed using Prism v7.0 software (GraphPad Software).

The next assay deals with AKT phosphorylation. As to the kind of experiment: HGF-driven AKT phosphorylation in MDA-MB-231 cells (immunoblot). The class given is cell-based. To be noted: HGF pulse. As for the experimental part:
as §1

In a further assay the target is HER3 (Homo sapiens (Human), UniProt P21860). In words: TR-FRET assay for ERBB kinases. The class given is biochemical. To be noted: geometric mean if measured more than once.
Assay [1] deals with EGFR L858R/T790M double mutant (H1975) (Homo sapiens (Human), UniProt P00533, L858R/T790M). In words: EGFR protein degradation assay (Western blot). The class given is cell-based. To be noted: 72 hours, 300 nM to 10 nM. The procedure, abridged:
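EGFR protein levels were measured by immunoblotting. Lysate protein was quantified by BCA, and 10 μg per sample was separated by SDS/PAGE at 165V for 2 hours and transferred to PVDF. Membranes were blocked in TBS-T with 5% milk for 1 hour, probed overnight at 4° C with EGFR and tubulin antibodies, then secondary antibody for 1 hour, and detected by ECL on a Chemidoc.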

The target of the next assay is EGFR Exon 20 ASV (HeLa*) (Homo sapiens (Human), UniProt P00533, DUP767-769). As to the kind of experiment: EGFR protein degradation assay (Western blot). The class given is cell-based. To be noted: 72 hours, 300 nM to 10 nM.
For assay [2], the target named is EGFR-wt (MDA-MB-231 or MCF7 or A549 or OVCAR8) (Homo sapiens (Human), UniProt P00533). As to the kind of experiment: EGFR protein degradation assay (Western blot). The class given is cell-based. To be noted: 72 hours, 300 nM to 10 nM. The procedure, abridged: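 EGFR degradation was assessed by Western blot. Cells expressing the appropriate EGFR were seeded in 6-well plates (300,000 cells per well) and adhered overnight. Media was removed, cells were washed with cold phosphate-buffered saline, scraped into 400 μl Cell Signaling lysis buffer plus protease inhibitor cocktail, and spun once at 10 000 rpm for 10 minutes. After BCA quantification, loading buffer and reducing agent were added. Gels loaded with 10 μg protein ran at 165V for 2 hours, and bands were visualized by chemiluminescence.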

Another assay concerns the target EGFR-Δ19 (HCC827) (Homo sapiens (Human), UniProt P00533, DEL746-750). In words: EGFR protein degradation assay (Western blot). The class given is cell-based. To be noted: 72 hours, 300 nM to 10 nM.
Another assay concerns the target EGFR Exon20NPG (Homo sapiens (Human), UniProt P00533, INS770NPG). As to the kind of experiment: TR-FRET assay for ERBB kinases. The class given is biochemical. To be noted: geometric mean if measured more than once. In a few lines:
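Phosphorylation of fluorescein-labeled poly-GluTyr read as TR-FRET using Tb-pY20 antibody after EDTA stop, with 340 nm excitation. Kinase reaction ran 10 min at room temperature following 10 min compound pre-incubation; substrate mix held 3 mM ATP and 30 µM peptide before addition. Buffer was HEPES pH 7.5.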

A further assay concerns the target EGFR L858R/T790M (Homo sapiens (Human), UniProt P00533, L858R/T790M). As to the kind of experiment: TR-FRET assay for ERBB kinases. The class given is biochemical. To be noted: geometric mean if measured more than once. In a few lines: (§2)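 HEPES pH 7.5 buffer with 10 mM MgCl2 and 1 mM DTT; 10 min enzyme–compound pre-incubation. A 10 min room-temperature reaction was initiated by a mix carrying 3 mM ATP, stopped with EDTA, and detected by time-resolved FRET at 340 nm excitation.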

In the next assay the target is EGFR WT (Homo sapiens (Human), UniProt P00533). As to the kind of experiment: TR-FRET assay for ERBB kinases. The class given is biochemical. To be noted: geometric mean if measured more than once. In a few lines:
as §2

The target of another assay is EGFR L858R/T790M/C797S (Homo sapiens (Human), UniProt P00533, C797S/L858R/T790M). In words: TR-FRET assay for ERBB kinases. The class given is biochemical. To be noted: geometric mean if measured more than once. In a few lines: as §2

Sequence of L858R EGFR (P00533 25-1210 L858R): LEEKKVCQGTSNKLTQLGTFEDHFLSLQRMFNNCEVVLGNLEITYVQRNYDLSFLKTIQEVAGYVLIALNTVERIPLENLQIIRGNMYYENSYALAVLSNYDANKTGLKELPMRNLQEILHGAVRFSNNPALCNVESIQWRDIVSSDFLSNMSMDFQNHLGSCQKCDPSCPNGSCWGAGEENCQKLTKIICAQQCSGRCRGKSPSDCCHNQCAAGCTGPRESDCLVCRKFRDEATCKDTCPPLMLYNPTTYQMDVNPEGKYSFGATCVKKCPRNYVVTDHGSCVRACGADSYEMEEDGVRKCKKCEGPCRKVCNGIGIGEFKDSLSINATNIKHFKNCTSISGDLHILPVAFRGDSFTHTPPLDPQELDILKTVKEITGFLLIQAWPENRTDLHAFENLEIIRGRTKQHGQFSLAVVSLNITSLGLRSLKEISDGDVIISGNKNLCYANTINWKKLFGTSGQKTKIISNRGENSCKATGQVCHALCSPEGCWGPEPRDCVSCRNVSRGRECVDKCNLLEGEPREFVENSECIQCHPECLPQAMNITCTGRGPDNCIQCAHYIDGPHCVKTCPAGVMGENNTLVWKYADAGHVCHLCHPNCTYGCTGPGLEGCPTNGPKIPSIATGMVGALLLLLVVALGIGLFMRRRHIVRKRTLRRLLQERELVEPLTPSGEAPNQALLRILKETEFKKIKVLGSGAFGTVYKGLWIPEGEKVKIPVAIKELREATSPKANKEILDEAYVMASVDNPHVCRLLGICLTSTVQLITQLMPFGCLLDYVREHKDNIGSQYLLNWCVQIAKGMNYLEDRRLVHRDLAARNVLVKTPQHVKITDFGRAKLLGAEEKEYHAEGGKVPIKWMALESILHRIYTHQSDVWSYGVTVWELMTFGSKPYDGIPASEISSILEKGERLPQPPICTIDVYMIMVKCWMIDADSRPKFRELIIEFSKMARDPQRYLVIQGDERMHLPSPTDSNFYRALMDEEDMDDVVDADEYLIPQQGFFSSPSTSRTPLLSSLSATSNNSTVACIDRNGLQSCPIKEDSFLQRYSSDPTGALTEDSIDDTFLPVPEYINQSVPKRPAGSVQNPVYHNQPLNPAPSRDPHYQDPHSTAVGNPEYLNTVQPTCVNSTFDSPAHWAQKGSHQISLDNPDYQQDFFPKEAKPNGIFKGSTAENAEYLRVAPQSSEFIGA
Sequence of HER3 (P21860 20-1342, species assumed): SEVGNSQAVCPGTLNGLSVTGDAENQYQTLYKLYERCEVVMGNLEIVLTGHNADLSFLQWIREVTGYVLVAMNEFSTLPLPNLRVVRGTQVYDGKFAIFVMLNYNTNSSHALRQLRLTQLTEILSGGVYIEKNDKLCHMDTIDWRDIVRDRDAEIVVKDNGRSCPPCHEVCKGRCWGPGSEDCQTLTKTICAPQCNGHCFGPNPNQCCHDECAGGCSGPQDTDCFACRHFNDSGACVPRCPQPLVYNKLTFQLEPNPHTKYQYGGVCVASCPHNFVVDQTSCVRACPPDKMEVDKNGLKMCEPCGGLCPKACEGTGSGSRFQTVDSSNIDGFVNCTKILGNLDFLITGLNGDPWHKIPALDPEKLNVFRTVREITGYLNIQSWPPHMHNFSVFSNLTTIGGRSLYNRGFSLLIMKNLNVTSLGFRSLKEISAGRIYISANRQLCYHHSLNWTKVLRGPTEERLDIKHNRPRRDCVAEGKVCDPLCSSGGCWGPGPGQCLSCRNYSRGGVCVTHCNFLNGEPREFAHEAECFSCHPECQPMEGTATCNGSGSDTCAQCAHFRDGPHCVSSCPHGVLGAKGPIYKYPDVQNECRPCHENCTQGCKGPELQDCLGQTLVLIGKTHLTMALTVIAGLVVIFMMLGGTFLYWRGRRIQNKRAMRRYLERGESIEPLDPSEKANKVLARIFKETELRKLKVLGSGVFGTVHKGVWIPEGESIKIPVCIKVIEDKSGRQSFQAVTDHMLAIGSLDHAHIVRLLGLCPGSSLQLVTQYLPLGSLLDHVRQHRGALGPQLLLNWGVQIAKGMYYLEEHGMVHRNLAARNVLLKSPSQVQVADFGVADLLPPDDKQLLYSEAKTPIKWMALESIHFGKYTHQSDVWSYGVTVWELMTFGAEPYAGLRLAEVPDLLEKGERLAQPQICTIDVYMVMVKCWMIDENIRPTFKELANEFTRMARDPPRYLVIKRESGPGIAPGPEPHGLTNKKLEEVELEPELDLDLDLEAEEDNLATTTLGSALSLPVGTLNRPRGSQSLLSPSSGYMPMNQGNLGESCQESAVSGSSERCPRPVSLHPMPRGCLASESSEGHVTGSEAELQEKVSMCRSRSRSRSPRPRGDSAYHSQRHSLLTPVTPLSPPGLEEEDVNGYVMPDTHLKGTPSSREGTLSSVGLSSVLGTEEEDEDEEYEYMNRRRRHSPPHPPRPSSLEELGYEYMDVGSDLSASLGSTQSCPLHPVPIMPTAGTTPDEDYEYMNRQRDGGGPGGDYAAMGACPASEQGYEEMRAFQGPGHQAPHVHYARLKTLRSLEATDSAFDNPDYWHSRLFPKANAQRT
Sequence of WT EGFR (P00533 25-1210): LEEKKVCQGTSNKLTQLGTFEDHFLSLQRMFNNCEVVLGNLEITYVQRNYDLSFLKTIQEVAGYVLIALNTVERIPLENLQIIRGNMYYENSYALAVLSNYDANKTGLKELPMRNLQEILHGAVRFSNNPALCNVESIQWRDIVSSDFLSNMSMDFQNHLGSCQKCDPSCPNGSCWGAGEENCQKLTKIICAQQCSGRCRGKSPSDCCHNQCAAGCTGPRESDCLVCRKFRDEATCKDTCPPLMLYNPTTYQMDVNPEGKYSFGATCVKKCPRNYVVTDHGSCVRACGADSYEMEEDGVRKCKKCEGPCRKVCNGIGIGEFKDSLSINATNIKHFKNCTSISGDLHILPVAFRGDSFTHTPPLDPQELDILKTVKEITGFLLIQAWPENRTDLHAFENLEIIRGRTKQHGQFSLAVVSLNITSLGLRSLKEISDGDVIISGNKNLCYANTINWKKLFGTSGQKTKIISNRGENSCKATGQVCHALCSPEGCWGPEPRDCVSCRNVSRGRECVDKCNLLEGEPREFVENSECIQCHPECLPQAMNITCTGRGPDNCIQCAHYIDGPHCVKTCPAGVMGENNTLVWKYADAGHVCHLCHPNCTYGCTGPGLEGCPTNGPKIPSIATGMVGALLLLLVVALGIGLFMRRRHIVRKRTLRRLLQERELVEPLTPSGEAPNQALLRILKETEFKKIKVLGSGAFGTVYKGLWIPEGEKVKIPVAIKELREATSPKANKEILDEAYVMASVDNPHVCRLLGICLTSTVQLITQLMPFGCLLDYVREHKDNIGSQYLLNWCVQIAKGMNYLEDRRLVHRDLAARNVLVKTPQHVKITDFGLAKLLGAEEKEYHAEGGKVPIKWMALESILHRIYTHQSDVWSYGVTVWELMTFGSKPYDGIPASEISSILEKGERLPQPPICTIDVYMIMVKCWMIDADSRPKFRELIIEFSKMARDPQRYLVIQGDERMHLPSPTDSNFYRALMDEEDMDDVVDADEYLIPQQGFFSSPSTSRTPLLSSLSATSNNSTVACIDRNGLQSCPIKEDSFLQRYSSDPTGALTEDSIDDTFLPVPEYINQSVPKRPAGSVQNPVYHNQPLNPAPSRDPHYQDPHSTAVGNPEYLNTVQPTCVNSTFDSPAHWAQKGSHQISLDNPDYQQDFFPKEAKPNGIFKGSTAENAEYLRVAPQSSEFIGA
Sequence of EGFR WT (P00533 25-1210): as above

With `COc1cc2ncnc(Nc3ccc(F)c(Cl)c3)c2cc1OCCCCCOCCOCCC(=O)N[C@H](C(=O)N1C[C@H](O)C[C@H]1C(=O)NCc1ccc(-c2scnc2C)cc1)C(C)(C)C` [PROTAC 3], the “degradation of L858R EGFR (immunoblot)” value on L858R EGFR is “enabled the degradation”. On WT EGFR, the “EGFR degradation (immunoblot)” value is on record as “sparing the WT EGFR”. For the same molecule, the “degradation of exon-19 deletion EGFR (immunoblot)” value on exon-19 deletion EGFR is given as “enabled the degradation”.
The molecule `COc1cc2c(Oc3ccc(N(C(=O)C4(C(N)=O)CC4)c4ccc(F)cc4)cc3F)ccnc2cc1OCCCOCCCOCCC(=O)N[C@H](C(=O)N1C[C@@H](O)C[C@H]1C(=O)NCc1ccc(-c2scnc2C)cc1)C(C)(C)C` (single isomer, unassigned) [diastereomer 8] came in with an IC50 in the assay on GTL16 cells of 0.156 µM. In addition, the “fold higher concentration than PROTAC 7 required to completely inhibit agonist-driven AKT phosphorylation” value in the assay on AKT phosphorylation was “approximately 10 fold”.
With `COc1cc2ncnc(Nc3ccc(F)c(Cl)c3)c2cc1NC(=O)/C=C/CN(C)CCCOCCCOCC(=O)N[C@H](C(=O)N1CC(O)C[C@@H]1C(=O)NCc1ccc(-c2scnc2C)cc1)C(C)(C)C` (some centres unmarked) [compound 48], the IC50 at HER3 came to 20 µM; at EGFR Exon20NPG, 0.12 µM; on EGFR L858R/T790M, 3 µM; at EGFR WT, 0.0047 µM; at EGFR L858R/T790M/C797S, 7 µM. For the same molecule, in assay [1], the “EGFR protein remaining, EGFR L858R/T790M double mutant” value was “B (≤80% and >50% EGFR protein remaining after 72 hours of incubation with the test compound at a concentration between 300 nM and 10 nM)”. Moreover, on EGFR Exon 20 ASV (HeLa*), the “EGFR protein remaining, EGFR Exon 20 ASV” value is “C (>80% EGFR protein remaining after 72 hours of incubation with the test compound at a concentration of 300 nM)”. For the same molecule, the “EGFR protein remaining, EGFR-wt” value in assay [2] was “B (≤80% and >50% EGFR protein remaining after 72 hours of incubation with the test compound at a concentration between 300 nM and 10 nM)”. In addition, on EGFR-Δ19 (HCC827), the “EGFR protein remaining, EGFR-Δ19” value is “A (≤50% EGFR protein remaining after 72 hours of incubation with the test compound at a concentration between 300 nM and 10 nM)”.
